Read-outs that look alike come from different tables or passages of the source. Where only a bound is given, the exact number is not on record here.

One series concerns L1210/TK^−. Kind of series: Cytostatic assay, thymidine kinase-deficient L1210/TK^− cells. Type of series: cell-based, murine. Particulars: Mus musculus; for IC50: L1210.
In the next series the test system is L1210.Hyor. Kind of series: Cytostatic assay, Mycoplasma hyorhinis-infected L1210 cells. As to conditions: for % Retention: CC50 L1210 × 100 ÷ CC50 L1210/Hyor; for CC50 / IC50: Mus musculus; for CC50: L1210, read-out: CC50 L1210/Hyor. In outline:
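Suspension L1210/0 murine leukaemia cells infected with M. hyorhinis, seeded at 60,000 cells/well with test compound in DMEM/10% FBS and grown 48 h at 37 °C, 5% CO2. Cell number counted by Coulter counter; activity also expressed as % retained versus uninfected cells.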

In the next series the test system is U87. Briefly: Cytostatic assay, U87 cells. Type of series: cell-based. As to conditions: Homo sapiens, U-87 MG, read-out: IC50 U87.
The next series relates to U87.Hyor. Kind of series: Cytostatic assay, Mycoplasma hyorhinis-infected U87 cells. The class given is cell-based, human. Particulars: for IC50: Homo sapiens, U-87 MG, read-out: IC50 U87.Hyor.
Another series relates to Cem/hEnt-1. Kind of series: Cytostatic assay, CEM cells containing the hEnt1 transporter. Type of series: cell-based. The source says: Data are mean (±SD) of at least two to four independent experiments. Table 8 identifies the phosphoramidate motif of compounds embodying the present invention, as discussed above with respect to Table 6, but with “Naph” standing for 1-naphthyl.

A further series relates to L1210/0. Briefly: Cytostatic assay, L1210/0 cells. Type of series: cell-based, murine. As to conditions: Mus musculus; for IC50: read-out: IC50 L1210/0. The source says: The cell lines employed were L1210/0 (a leukemia cell line), FM3A/0 (a breast cancer cell line), Cem/0 (an acute lymphoblastic leukemia cell line) and HeLa (a cervical cell line).
Another series has as its target T1, carboxypeptidase Y (Saccharomyces cerevisiae, UniProt P00729).
T1 construct: purchased Sigma-Aldrich
T1 sequence (P00729 112-532): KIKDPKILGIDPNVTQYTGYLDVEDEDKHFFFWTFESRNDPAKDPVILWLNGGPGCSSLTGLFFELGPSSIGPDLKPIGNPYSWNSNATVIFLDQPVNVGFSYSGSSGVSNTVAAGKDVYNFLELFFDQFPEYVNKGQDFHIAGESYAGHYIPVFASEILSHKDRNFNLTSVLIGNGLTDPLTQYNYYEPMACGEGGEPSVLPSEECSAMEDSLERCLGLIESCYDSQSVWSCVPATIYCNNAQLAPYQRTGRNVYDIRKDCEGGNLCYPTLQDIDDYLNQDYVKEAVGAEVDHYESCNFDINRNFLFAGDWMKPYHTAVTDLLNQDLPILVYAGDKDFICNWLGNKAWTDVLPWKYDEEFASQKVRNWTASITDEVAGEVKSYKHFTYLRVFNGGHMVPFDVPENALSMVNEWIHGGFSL
Briefly: Carboxypeptidase Y assay by in situ 31P NMR. Type of series: in vitro ADME. As to conditions: yeast (Saccharomyces cerevisiae), 5 mg/mL, pH 7.6. The protocol:
The enzymatic stability of the prodrug CPF-373 towards carboxypeptidase Y was studied using in situ ^31P NMR (202 MHz). The experiment was carried out by dissolving CPF-373 (3.0 mg) in d6-acetone (150 μL) and adding TRIZMA buffer pH 7.6 (300 μL). The resulting solution was placed in an NMR tube and a ^31P-NMR experiment at 25° C. was recorded as the blank experiment. The enzyme Carboxypeptidase Y (0.2 mg) was solubilised in TRIZMA (150 μL) and added to the solution of the phosphoramidate derivative in the NMR tube. Next, the tube was placed in the NMR machine, which was set to run a ^31P-NMR experiment (64 scans) every 4 minutes for 14 hours at 25° C. Data were processed and analysed with the Bruker Topspin 2.1 program. Carboxypeptidase Y and TRIZMA buffer were purchased from Sigma-Aldrich.
The compound (1) was incubated with carboxypeptidase Y (also known as cathepsin A) in TRIZMA buffer and the conversion of (1) was monitored by ^31P NMR. For a better resolution original spectra (lower graphs) and deconvoluted ones (upper graphs) are shown.
A enzymatic study using a carboxypeptidase Y assay was performed in which compound CPF 581, carboxypeptidase Y, and Trizma buffer (pH 7.6) were dissolved in acetone-d6 and ^31P NMR spectrum (202 MHz) spectra were recorded at regular intervals (every 7 min) over 14 h. […]

Setting [1] is: Table 3, read-out: IC50 L1210/TK−.
The mark [2] stands for this setting: Table 6, read-out: IC50 L1210/TK^−.
Where [3] appears, read: Homo sapiens, CCRF-CEM, read-out: IC50 Cem/hEnt-1.

Description for U87.Hyor: All cells were maintained in Dulbecco's modified Eagle's medium (DMEM) (Invitrogen, Carlsbad, Calif.) with 10% foetal bovine serum (FBS) (Biochrom AG, Berlin, Germany), 10 mM Hepes and 1 mM Sodium Pyruvate (Invitrogen). Cells were grown at 37° C. in a humidified incubator with a gas phase of 5% CO2.
Monolayer cells (U87 and U87.Hyor) were seeded in 48-well microtiter plates (Nunc™, Roskilde, Denmark) at 10,000 cells/well. After 24 hours, an equal volume of fresh medium containing the test compounds was added. On day 5, cells were trypsinized and counted in a Coulter counter (Analis, Suarlée, Belgium). Suspension cells (L1210/0, L1210/TK^−, L1210.Hyor, CEM/0, CEM/TK^−) were seeded in 96-well microtiter plates (Nunc™) at 60,000 cells/well in the presence of a given amount of the test compounds. The cells were allowed to proliferate for 48 h (L1210) or 72 hours (CEM) and were then counted in a Coulter counter.

Take `O=c1[nH]c(=O)n([C@H]2C[C@H](O)[C@@H](CO)O2)cc1F` [5-FdUrd, 5-fluoro-2′-deoxyuridine, reference compound]: the CC50 amounted to 3100 ± 200 nM in the series with L1210/TK^− (L1210, Table 1, read-out: CC50 L1210/TK^−) and 278 nM in the series with L1210.Hyor. Also, the IC50 was determined as 3100 nM with L1210/TK^− (setting [1]); 3000 ± 100 nM in the series with L1210/TK^− (setting [2]); 240 nM in the series on L1210.Hyor (L1210, read-out: IC50 L1210.Hyor, Table 3); 7 ± 1 nM in the series on U87 (Table 3); 3000 ± 550 nM in the series with U87.Hyor (Table 3); 40 ± 20 nM with Cem/hEnt-1 (setting [3]). Further, the “% Retention” value in the series with L1210.Hyor stood at 0.2%. The “loss of cytostatic activity against L1210.Hyor cells” value in the series on L1210.Hyor (versus L1210/0) was 300 fold. The “loss of cytostatic activity in U87.Hyor versus uninfected U87 cells” value in the series on U87.Hyor is 400 fold.

For `C[C@H](NP(=O)(OC[C@H]1O[C@@H](n2cc(F)c(=O)[nH]c2=O)CC1O)Oc1cccc2ccccc12)C(=O)OCc1ccccc1` (stereo partly drawn) [CPF 373, 5-Fluoro-2′deoxyuridine-5′-O-[1-naphthyl (benzoxy-L-alaninyl)] phosphate], the IC50 in the series on L1210/TK^− (setting [1]) is 27 nM; with L1210/TK^− (setting [2]) it was 45 ± 27 nM; in the series with L1210.Hyor (L1210, read-out: IC50 L1210.Hyor) it was 25 nM; with U87, 35 nM; in the series with L1210/0 (L1210/0, Table 3), 11 nM; with L1210/0 (L1210/0, Table 6), 11 ± 7 nM. In addition, the IC50 with L1210/0 (L1210/0, Table 7) stood at 11 ± 9 nM; with U87.Hyor, 39 nM; with Cem/hEnt-1 (setting [3]) it was 50 ± 20 nM; with Cem/hEnt-1 (read-out: IC50 Cem/hEnt-1 + NBMPR, in the presence of NBMPR), 260 nM; with Cem/hEnt-1 (read-out: IC50 Cem/hEnt-1 + dipyridamole, in the presence of dipyridamole), 130 nM. Further, in the series with L1210.Hyor, the “% Retention” value amounted to 44%. Further, the CC50 in the series with L1210.Hyor stood at 25 nM; in the series on L1210/0 (L1210/0, Table 2, mycoplasma negative cells, read-out: CC50 L1210), 11 nM. Further, the “IC50(L1210.Hyor)/IC50(L1210/0)” value in the series with L1210.Hyor (Table 7) was determined as 2.27. Further, the “time to complete conversion of parent to the putative intermediate” value at carboxypeptidase Y is ≤ 26 min.

These data come from patent US10993957B2 (NuCana plc, priority 2011, dated 2021).
